Experimental data as given in patent US11053204B2, “Pyrimidinyloxy benzene derivatives as herbicides” (FMC Corporation, priority 2015, dated 2021).

Key:
Format in all cases: in vivo
[1] = tested on: ragweed (common ragweed, Ambrosia elatior); assay: Test A postemergence, visual injury rating; settings: Ambrosia artemisiifolia, post-emergence, 240 h, 0 is no effect, 100 is complete control, read-out: Ragweed plant response rating (0 to 100 scale)
Summary of the method: (§1)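 Visual injury scored 0–100 (100 = complete control) against untreated controls about 10 days after treatment in a greenhouse. Test chemicals, formulated with surfactant in non-phytotoxic solvent, were sprayed on soil preemergence or on 2-10 cm, one- to two-leaf plants postemergence.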

[2] = tested on: barnyardgrass (Echinochloa crus-galli); assay: Test A postemergence, visual injury rating; settings: Echinochloa crus-galli, post-emergence, 240 h, 0 is no effect, 100 is complete control, read-out: Barnyardgrass plant response rating (0 to 100 scale)
Summary of the method: as §1

[3] = tested on: pigweed (Amaranthus retroflexus); assay: Test A postemergence, visual injury rating; settings: Amaranthus retroflexus, post-emergence, 240 h, 0 is no effect, 100 is complete control, read-out: Pigweed plant response rating (0 to 100 scale)
Summary of the method: as §1

[4] = tested on: galium (catchweed bedstraw, Galium aparine); assay: Test A postemergence, visual injury rating; settings: Galium, post-emergence, 240 h, 0 is no effect, 100 is complete control, read-out: Galium plant response rating (0 to 100 scale)
Summary of the method: as §1

[5] = tested on: blackgrass (Alopecurus myosuroides); assay: Test A postemergence, visual injury rating; settings: Alopecurus myosuroides, post-emergence, 240 h, 0 is no effect, 100 is complete control, read-out: Blackgrass plant response rating (0 to 100 scale)
Summary of the method: as §1

[6] = tested on: giant foxtail (Setaria faberii); assay: Test A postemergence, visual injury rating; settings: Setaria faberi, post-emergence, 240 h, 0 is no effect, 100 is complete control, read-out: Foxtail, Giant plant response rating (0 to 100 scale)
Summary of the method: as §1

[7] = tested on: wheat (Triticum aestivum); assay: Test A postemergence, visual injury rating; settings: Triticum aestivum, post-emergence, 240 h, 0 is no effect, 100 is complete control, read-out: Wheat plant response rating (0 to 100 scale)
Summary of the method: as §1

corn (Zea mays) = assay: Test A postemergence, visual injury rating; settings: Zea mays, post-emergence, 240 h, 0 is no effect, 100 is complete control, read-out: Corn plant response rating (0 to 100 scale)
Summary of the method: as §1

[8] = tested on: Italian ryegrass (Lolium multiflorum); assay: Test A postemergence, visual injury rating; settings: Lolium multiflorum, post-emergence, 240 h, 0 is no effect, 100 is complete control, read-out: Ryegrass, Italian plant response rating (0 to 100 scale)
Summary of the method: as §1

kochia (Kochia scoparia) = assay: Test A postemergence, visual injury rating; settings: Bassia scoparia, post-emergence, 240 h, 0 is no effect, 100 is complete control, read-out: Kochia plant response rating (0 to 100 scale)
Summary of the method: as §1

[9] = tested on: foxtail, giant (giant foxtail, Setaria faberii); assay: Test C postemergence, plant response rating; settings: Setaria faberi, post-emergence
Source text: (§2) Seeds of plant species selected from blackgrass (Alopecurus myosuroides), ryegrass, Italian (Italian ryegrass, Lolium multiflorum), wheat (winter wheat, Triticum aestivum), galium (catchweed bedstraw, Galium aparine), corn (Zea mays), crabgrass, large (large crabgrass, Digitaria sanguinalis), foxtail, giant (giant foxtail, Setaria faberii), johnsongrass (Sorghum halepense), lambsquarters (Chenopodium album), morningglory (Ipomoea coccinea), nutsedge, yellow (yellow nutsedge, Cyperus esculentus), pigweed (Amaranthus retroflexus), ragweed (common ragweed, Ambrosia elatior), soybean (Glycine max), barnyardgrass (Echinochloa crus-galli), oilseed rape (Brassica napus), pigweed, palmer (palmer pigweed, Amaranthus palmeri), waterhemp (common waterhemp, Amaranthus rudis), velvetleaf (Abutilon theophrasti), kochia (Kochia scoparia), surinam grass (Brachiaria decumbens), nightshade (eastern black nightshade, Solanum ptycanthum), wild poinsettia (Euphorbia heterophylla), windgrass (Apera spica-venti), and oat, wild (wild oat Avena fatua), were planted into a blend of loam soil and sand or a silt loam soil and treated preemergence with test chemicals formulated in a non-phytotoxic solvent mixture which included a surfactant.
(§3) At the same time, plants selected from these crop and weed species and also chickweed (common chickweed, Stellaria media), buckwheat, wild (wild buckwheat, Polygonum convolvulus), wild mustard (Sinapis arvensis), field poppy (Papaver rhoeas), field violet (Viola arvensis), geranium, cutleaf (cutleaf geranium, Geranium dissectum), Canada thistle (Cirsium arvense), and speedwell (bird's-eye speedwell, Veronica persica), were planted in pots containing Sunshine Redi-Earth® planting medium comprising spaghnum peat moss, vermiculite, starter nutrients and dolomitic limestone and treated with postemergence applications of test chemicals formulated in the same manner. Plants ranged in height from 2 to 18 cm (1- to 4-leaf stage) for postemergence treatments. Treated plants and controls were maintained in a greenhouse for 13 to 15 d, after which time all species were compared to controls and visually evaluated. Plant response ratings, summarized in Table C, are based on a scale of 0 to 100 where 0 is no effect and 100 is complete control. A dash (-) response means no test result.

[10] = tested on: galium (catchweed bedstraw, Galium aparine); assay: Test C postemergence, plant response rating; settings: Galium, post-emergence
Source text: as §2, §3

[11] = tested on: blackgrass (Alopecurus myosuroides); assay: Test C postemergence, plant response rating; settings: Alopecurus myosuroides, post-emergence
Source text: as §2, §3

[12] = tested on: ryegrass, Italian (Italian ryegrass, Lolium multiflorum); assay: Test C postemergence, plant response rating; settings: Lolium multiflorum, post-emergence
Source text: as §2, §3

soybean (Glycine max) = assay: Test C postemergence, plant response rating; settings: Glycine max, post-emergence
Source text: as §2, §3

[13] = tested on: oilseed rape (Brassica napus); assay: Test C postemergence, plant response rating; settings: Brassica napus, post-emergence
Source text: as §2, §3

[14] = tested on: wheat (winter wheat, Triticum aestivum); assay: Test C postemergence, plant response rating; settings: Triticum aestivum, post-emergence
Source text: as §2, §3

[15] = tested on: chickweed (common chickweed, Stellaria media); assay: Test C postemergence, plant response rating; settings: Stellaria media, post-emergence
Source text: as §2, §3

[16] = 62 g ai/ha, scale 0 to 100 (0 no effect, 100 complete control)
[17] = 125 g ai/ha, scale 0 to 100 (0 no effect, 100 complete control)

Molecule O=C(OCCC(F)(F)F)c1c(Cl)cccc1Oc1ncc(Cl)cn1 [Compound 15, 3,3,3-trifluoropropyl 2-chloro-6-[(5-chloro-2-pyrimidinyl)oxy]benzoate] has a pest or weed control at 125 g/ha ([1]; 125 g ai/ha) of 20%, a pest or weed control at 500 g/ha ([1]; 500 g ai/ha) of 40% and a pest or weed control at 125 g/ha ([2]; 125 g ai/ha) of 90%. For the same molecule, the pest or weed control at 500 g/ha ([2]; 500 g ai/ha) was 100%, the pest or weed control at 125 g/ha ([3]; 125 g ai/ha) was 100% and the pest or weed control at 500 g/ha ([3]; 500 g ai/ha) was 100%. It also gave a pest or weed control at 125 g/ha ([4]; 125 g ai/ha) of 100%, a pest or weed control at 500 g/ha ([4]; 500 g ai/ha) of 100% and a pest or weed control at 125 g/ha ([5]; 125 g ai/ha) of 90%. It also gave a pest or weed control at 500 g/ha ([5]; 500 g ai/ha) of 100%, a pest or weed control at 125 g/ha ([6]; 125 g ai/ha) of 90% and a pest or weed control at 500 g/ha ([6]; 500 g ai/ha) of 100%. For the same molecule, the plant injury at 125 g/ha ([7]; 125 g ai/ha) was 20%, the plant injury at 500 g/ha ([7]; 500 g ai/ha) was 100% and the plant injury at 125 g/ha (corn (Zea mays); 125 g ai/ha) was 50%. It also gave a plant injury at 500 g/ha (corn (Zea mays); 500 g ai/ha) of 90%, a pest or weed control at 125 g/ha ([8]; 125 g ai/ha) of 60% and a pest or weed control at 500 g/ha ([8]; 500 g ai/ha) of 90%. It also gave a pest or weed control at 125 g/ha (kochia (Kochia scoparia); 125 g ai/ha) of 100%, a pest or weed control at 500 g/ha (kochia (Kochia scoparia); 500 g ai/ha) of 100% and a pest or weed control at 16 g/ha ([9]; 16 g ai/ha, scale 0 to 100) of 25%. It also gave a pest or weed control at 31 g/ha ([9]; 31 g ai/ha, scale 0 to 100) of 30%, a pest or weed control at 62 g/ha [9, 16] of 20% and a pest or weed control at 125 g/ha [9, 17] of 35%. The pest or weed control at 16 g/ha ([10]; 16 g ai/ha, scale 0 to 100) was 70%, the pest or weed control at 31 g/ha ([10]; 31 g ai/ha, scale 0 to 100) was 60% and the pest or weed control at 62 g/ha [10, 16] was 95%. It also gave a pest or weed control at 125 g/ha [10, 17] of 95%, a pest or weed control at 16 g/ha ([11]; 16 g ai/ha, scale 0 to 100) of 0% and a pest or weed control at 31 g/ha ([11]; 31 g ai/ha, scale 0 to 100) of 5%. For the same molecule, the pest or weed control at 62 g/ha [11, 16] was 10%, the pest or weed control at 125 g/ha [11, 17] was 10% and the pest or weed control at 16 g/ha ([12]; 16 g ai/ha, scale 0 to 100) was 0%. It also gave a pest or weed control at 31 g/ha ([12]; 31 g ai/ha, scale 0 to 100) of 5%, a pest or weed control at 62 g/ha [12, 16] of 10% and a pest or weed control at 125 g/ha [12, 17] of 5%. The plant injury at 16 g/ha (soybean (Glycine max); 16 g ai/ha, scale 0 to 100) was 45%, the plant injury at 31 g/ha (soybean (Glycine max); 31 g ai/ha, scale 0 to 100) was 45% and the plant injury at 62 g/ha (soybean (Glycine max); [16]) was 80%. The plant injury at 125 g/ha (soybean (Glycine max); [17]) was 90%, the plant injury at 16 g/ha ([13]; 16 g ai/ha, scale 0 to 100) was 45% and the plant injury at 31 g/ha ([13]; 31 g ai/ha, scale 0 to 100) was 95%. For the same molecule, the plant injury at 62 g/ha [13, 16] was 100%, the plant injury at 125 g/ha [13, 17] was 0% and the plant injury at 16 g/ha ([14]; 16 g ai/ha, scale 0 to 100) was 0%. For the same molecule, the plant injury at 31 g/ha ([14]; 31 g ai/ha, scale 0 to 100) was 0%, the plant injury at 62 g/ha ([14]; 62 g ai/ha, scale 0 to 100 (0 no effect, 100 complete control), read-out: Wheat plant response rating) was 0% and the plant injury at 125 g/ha [14, 17] was 0%. For the same molecule, the pest or weed control at 16 g/ha ([15]; 16 g ai/ha, scale 0 to 100) was 35%, the pest or weed control at 31 g/ha ([15]; 31 g ai/ha, scale 0 to 100) was 80% and the pest or weed control at 62 g/ha [15, 16] was 90%. The pest or weed control at 125 g/ha [15, 17] was 90%.
